From US20260083704A1, “LXR MODULATORS WITH BICYCLIC CORE MOIETY FOR TREATING DYSLIPIDEMIAS” (OrsoBio, Inc., priority 2022, published 2026)
Read-outs that look alike come from different tables or passages of the source.

Assays:
LXRβ [1] = target: T1, LXRβ (Homo sapiens, UniProt P55055); experiment: LXR Gal4 reporter transient transfection assay (mammalian two-hybrid, HEK293), LXRβ; type: cell-based; settings: ligand-binding domain (LBD) of LXRβ, HEK293; read-out: LBD-M2H Gal4β
T1 construct: LXRβ (amino acids 156-461); expressed in transfected cells; host or cells: HEK293
T1 sequence (P55055 156-460): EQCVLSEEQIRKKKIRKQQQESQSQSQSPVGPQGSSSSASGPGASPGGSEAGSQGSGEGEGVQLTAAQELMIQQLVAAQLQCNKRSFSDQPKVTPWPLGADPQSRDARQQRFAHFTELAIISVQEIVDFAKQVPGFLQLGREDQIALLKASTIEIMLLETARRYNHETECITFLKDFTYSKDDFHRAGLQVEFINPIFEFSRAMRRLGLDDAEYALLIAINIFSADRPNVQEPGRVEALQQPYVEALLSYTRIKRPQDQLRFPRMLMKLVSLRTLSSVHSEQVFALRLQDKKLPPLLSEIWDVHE
Method: LXRα and LXRβ activity status was determined via detection of interaction with coactivator and corepressor proteins in mammalian two-hybrid experiments (M2H). For this, via transient transfection the full length (FL) proteins of LXRα (amino acids 1-447; NP005684; SEQ ID NO:1) or LXRβ-(amino acids 1-461; NP009052; SEQ ID NO:2) or the ligand-binding domains (LBD) of LXRα (amino acids 155-447 SEQ ID NO:3) or LXRβ (amino acids 156-461; SEQ ID NO:4) were expressed from pCMV-AD (Stratagene) as fusions to the transcriptional activation domain of NFkB. As cofactors, domains of either the steroid receptor coactivator 1 (SRC1; amino acids 552-887; SEQ ID NO:5) or of the corepressor NCoR (amino acids 1906-2312; NP006302; SEQ ID NO:6) were expressed as fusions to the DNA binding domain of the yeast transcription factor GAL4 (from pCMV-BD; Stratagene). Interaction was monitored via activation of a coexpressed Firefly Luciferase Reporter gene under control of a promoter containing repetitive GAL4 response elements (vector pFRLuc; Stratagene). Transfection efficiency was controlled via cotransfection of constitutively active pRL-CMV Renilla reniformis luciferase reporter (Promega). HEK293 cells were grown in minimum essential medium (MEM) with 2 mM L-glutamine and Earle's balanced salt solution supplemented with 8.3% fetal bovine serum, 0.1 mM non-essential amino acids, 1 mM sodium pyruvate, at 37° C. in 5% CO2. 3.5×10^4 cells/well were plated in 96-well cell culture plates in growth medium supplemented with 8.3% fetal bovine serum for 16-20 h to ˜90% confluency. For transfection, medium was taken off and LXR and cofactor expressing plasmids as well as the reporter plasmids are added in 30 μL OPTIMEM/well including polyethylene-imine (PEI) as vehicle. Typical amounts of plasmids transfected/well: pCMV-AD-LXR (5 ng), pCMV-BD-cofactor (5 ng), pFR-Luc (100 ng), pRL-CMV (0.5 ng). Compound stocks were prepared in DMSO, prediluted in MEM to a total volume of 120 μL, and added 4 h after addition of the transfection mixture (final vehicle concentration not exceeding 0.2%). Cells were incubated for additional 16 h, lysed for 10 min in 1×Passive Lysis Buffer (Promega) and Firefly and Renilla luciferase activities were measured sequentially in the same cell extract using buffers containing D-luciferine and coelenterazine, respectively. Measurements of luminescence were done in a BMG-luminometer.
The potencies of Compound 21/3 and its analog, Compound pre-6/3, against LXRα and LXRβ were evaluated in biochemical binding assays, cellular mammalian two-hybrid (M2H) interaction assays evaluating nuclear receptor co-repressor (NCOR) recruitment, and cellular reporter assays evaluating transcriptional activity (Table 5).

[2] = target: T2, GST-LXRβ ligand-binding domain (Homo sapiens, UniProt P55055); experiment: TR-FRETβ activity assay (NCoA3 coactivator peptide recruitment); type: biochemical; settings: 1 μM 24(S)-25-epoxycholesterol prestimulation
T2 construct: amino acids 156-461; NP009052; made in house; host or cells: E. coli
T2 sequence (P55055 156-460 limits assumed): T1 sequence (P55055 156-460)
How it was run: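 Inverse-agonist format, with LXR prestimulated by 1 μM 24(S)-25-epoxycholesterol in pH 6.8 Tris/HCl, 240 mM KCl, BSA and Triton. Ten concentrations from 50 μM to 0.002 μM were equilibrated 1 h at 4° C with 76 nM GST-LXRβ LBD and 400 nM biotin-NCoA3 peptide. Peptide recruitment detected by 665/615 nm TR-FRET.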

LXRβ [3] = target: T3, LXRβ (Homo sapiens, UniProt P55055); experiment: LXR Gal4 reporter transient transfection assay (mammalian two-hybrid, HEK293), LXRβ; type: cell-based; set-up: LXRβ (amino acids 156-461); expressed in transfected cells; host or cells: HEK293; settings: full length (FL) LXRβ, HEK293; read-out: FL-M2H Gal4β
T3 sequence (P55055 1-460): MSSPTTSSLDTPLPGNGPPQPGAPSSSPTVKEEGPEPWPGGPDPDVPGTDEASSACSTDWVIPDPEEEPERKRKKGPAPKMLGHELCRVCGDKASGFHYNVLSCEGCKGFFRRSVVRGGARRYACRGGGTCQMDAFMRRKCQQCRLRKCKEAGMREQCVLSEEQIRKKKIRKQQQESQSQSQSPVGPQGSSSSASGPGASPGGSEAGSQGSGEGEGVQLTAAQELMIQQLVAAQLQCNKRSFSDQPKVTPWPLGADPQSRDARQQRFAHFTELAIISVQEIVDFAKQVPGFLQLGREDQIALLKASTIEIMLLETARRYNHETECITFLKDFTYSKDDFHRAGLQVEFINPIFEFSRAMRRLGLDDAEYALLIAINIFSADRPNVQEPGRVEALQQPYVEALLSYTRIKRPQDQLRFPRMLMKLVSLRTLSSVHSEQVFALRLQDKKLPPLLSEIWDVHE
How it was run: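 Mammalian two-hybrid read-out of LXR–coactivator (SRC1) or corepressor (NCoR) interaction: firefly luciferase under GAL4 response elements, normalised via Renilla co-transfection. LXRα/β full-length or LBD fusions expressed transiently in HEK293; compounds (final DMSO ≤0.2%) given 4 h after transfection for 16 h before lysis.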

SMILES | EC50 (LXRβ [1]) [nM] | EC50 [2] [nM] | EC50 (LXRβ [3]) [nM]
N#Cc1nccnc1-c1c(-c2cccs2)n(S(=O)(=O)c2ccc(Cl)cc2)c2ccccc12 [20/7] | < 100 | 1000 to 10000 | –
Cc1ccc(S(=O)(=O)n2c(-c3ccsc3)c(-c3ccsc3C#N)c3ccccc32)cc1 [1/23] | < 100 | 100 to 1000 | –
COc1ccc(S(=O)(=O)n2c(-c3ccc(CCC(=O)O)cc3)c(-c3ccsc3C#N)c3ccccc32)cc1 [15/6] | 100 to 1000 | 1000 to 10000 | –
Cc1ncc(S(=O)(=O)n2c(-c3ccccc3)c(-c3ccsc3C#N)c3ccccc32)s1 [1/42] | < 100 | 1000 to 10000 | –
COc1ccc(S(=O)(=O)n2c(-c3ccccc3)c(-c3ccc4ncccc4c3C#N)c3ccccc32)cc1 [20/20] | 100 to 1000 | 1000 to 10000 | –
N#Cc1sccc1-c1c(-c2cccs2)n(S(=O)(=O)c2ccc(CCC(=O)O)cc2)c2ccccc12 [23/1] | < 100 | 1000 to 10000 | –
N#Cc1sccc1-c1c(-c2cccc(N3CC(C(=O)O)C3)n2)n(S(=O)(=O)c2ccc(Cl)cc2)c2ccccc12 [30/6] | 100 to 1000 | 1000 to 10000 | –
Cc1ccc(S(=O)(=O)n2c(-c3cccc(/C=C/C(=O)O)c3)c(-c3ccsc3C#N)c3ccccc32)cc1 [3/18] | < 100 | 1000 to 10000 | –
N#Cc1sccc1-c1c(-c2cccs2)n(S(=O)(=O)c2ccc(Cl)cc2)c2cc(CCC(=O)O)c(O)cc12 [Compound 17] | 1000 to 10000 | > 10000 | –
Cc1ccc(S(=O)(=O)n2c(-c3cccc(C4CC4C(=O)O)c3)c(-c3ccsc3F)c3ccccc32)cc1 (stereo not drawn) [30/14] | 100 to 1000 | 1000 to 10000 | –
O=C(O)c1sccc1-c1c(-c2cccs2)n(S(=O)(=O)c2ccc(Cl)cc2)c2ccccc12 [Compound 21] | 1000 to 10000 | > 10000 | –
N#Cc1sccc1-c1c(-c2cccc(CCCC(=O)O)c2)n(S(=O)(=O)c2ccc(Cl)cc2)c2ccccc12 [30/5] | < 100 | 1000 to 10000 | –
O=S(=O)(c1ccc(Cl)cc1)n1c(-c2cccs2)c(-c2ccsc2C(F)F)c2ccccc21 [20/3] | < 100 | 100 to 1000 | –
N#Cc1sccc1-c1c(-c2ccccc2)n(S(=O)(=O)c2ccc(Cl)cc2)c2ccccc12 [Compound 26] | < 100 | 100 to 1000 | –
NC(=O)c1sccc1-c1c(-c2cccs2)n(S(=O)(=O)c2ccc(Cl)cc2)c2ccccc12 [Compound 22] | 100 to 1000 | 1000 to 10000 | –
COc1ccc(S(=O)(=O)n2c(-c3ccccc3)c(-c3c(C#N)sc4ccccc34)c3ccccc32)cc1 [20/18] | < 100 | – | –
COc1ccc(S(=O)(=O)n2c(-c3ccccc3)c(-c3cc4ccccc4nc3C#N)c3ccccc32)cc1 [20/17] | 100 to 1000 | – | –
Cc1ccc(S(=O)(=O)n2c(-c3cccc(-c4cncc(C(C)(C)C(=O)O)c4)c3)c(-c3ccsc3C#N)c3ccccc32)cc1 [30/3] | 100 to 1000 | – | –

SMILES | EC50 (LXRβ [1]) [nM] | EC50 [2] [nM] | EC50 (LXRβ [3]) [nM]
N#Cc1sccc1-c1c(-c2cccc(-c3cc(F)c(C(=O)O)cc3Cl)c2)n(S(=O)(=O)c2ccc(C(F)F)cc2)c2ccc(F)cc12 [11/8] | – | < 100 | < 100
N#Cc1cccc(C#N)c1-c1c(-c2cccc(Br)c2)n(S(=O)(=O)c2ccc(C(F)F)cc2)c2ccc(F)cc12 [1/139] | – | 100 to 1000 | < 100
Cc1ccc(S(=O)(=O)n2c(-c3cccc(-c4ccc(C(=O)O)cc4Cl)c3)c(-c3cccc(C)c3C#N)c3cc(F)ccc32)cc1 [11/2] | – | < 100 | < 100
Cc1ccc(S(=O)(=O)n2c(-c3cccc(N4CC(C(=O)O)C4)c3)c(-c3ccsc3C(F)(F)F)c3cc(F)ccc32)cc1 [3/30] | – | 100 to 1000 | < 100
COCc1sccc1-c1c(-c2cccc(N3CC(C(=O)O)C3)c2)n(S(=O)(=O)c2ccc(C)cc2)c2ccc(F)cc12 [3/6] | – | 1000 to 10000 | 100 to 1000
N#Cc1cc(C(=O)O)ccc1-c1cccc(-c2c(-c3ccccc3C#N)c3cc(F)ccc3n2S(=O)(=O)c2ccc(C(F)F)cc2)c1 [11/30] | – | < 100 | < 100
COc1sccc1-c1c(-c2cccc(N3CC(C(=O)O)C3)c2)n(S(=O)(=O)c2ccc(C)cc2)c2ccc(F)cc12 [3/3] | – | 1000 to 10000 | 100 to 1000
N#Cc1cccc(C#N)c1-c1c(-c2cccc(-c3ccc(C(=O)O)cc3Cl)c2)n(S(=O)(=O)c2ccc(C(F)F)cc2)c2ccccc12 [11/56] | – | < 100 | < 100
N#Cc1ccccc1-c1c(-c2cccc(-c3ccc(C(=O)O)cc3Cl)c2)n(S(=O)(=O)c2ccc(C(F)F)cc2)c2cccnc12 [8/7] | – | 100 to 1000 | < 100
Cc1ccc(S(=O)(=O)n2c(-c3cccc(C4CC(C(=O)O)C4)c3)c(-c3ccsc3C#N)c3cc(F)ccc32)cc1 (stereo not drawn) [3/39] | – | 100 to 1000 | < 100
N#Cc1cccc(C#N)c1-c1c(-c2cccc(-c3ccc(C(=O)O)c(F)c3F)c2)n(S(=O)(=O)c2ccc(C(F)F)cc2)c2ccc(F)cc12 [11/52] | – | < 100 | < 100
Cc1ccc(S(=O)(=O)n2c(-c3cccc(-c4ccc(C(C)(C)C(=O)O)c(S(C)(=O)=O)c4)c3)c(-c3ccsc3C#N)c3cc(F)ccc32)cc1 [2/18] | – | 100 to 1000 | < 100
N#Cc1sccc1-c1c(-c2cccc(N3CC(C(=O)O)C3)c2)n(S(=O)(=O)c2ccc(C(F)F)cc2)c2ccc(F)cc12 [3/35] | – | 100 to 1000 | < 100
N#Cc1ccccc1-c1c(-c2cccc(-c3ccc(C(=O)O)cc3F)c2)n(S(=O)(=O)c2ccc(C(F)F)cc2)c2ccc(F)cc12 [11/31] | – | < 100 | < 100
N#Cc1sccc1-c1c(-c2cccc(-c3ccc(C(=O)O)cc3Cl)c2)n(S(=O)(=O)c2ccc(Cl)cc2)c2ccc(F)cc12 [3/57] | – | 100 to 1000 | < 100
Cc1ccc(S(=O)(=O)n2c(-c3cccc(-c4ccc(C(=O)O)cc4Cl)c3)c(-c3ccc(C)cc3C#N)c3cc(F)ccc32)cc1 [11/4] | – | 100 to 1000 | < 100
COC(=O)c1ccc(-c2cccc(-c3c(-c4c(C)cccc4C#N)c4cc(F)ccc4n3S(=O)(=O)c3ccc(C(F)F)cc3)c2)c(Cl)c1 [1/122] | – | 100 to 1000 | < 100
N#Cc1ccc(S(=O)(=O)n2c(-c3cccc(-c4ccc(C(=O)O)cc4Cl)c3)c(-c3ccsc3C#N)c3cc(F)ccc32)cc1 [11/20] | – | 100 to 1000 | < 100
